# Activity calls are given as the source filed them. The calls are words filed in the database; no cut-off is given here.
# How the values were obtained:
# Assay type in all cases: functional
# MCF7 [1] = assay: Cell cycle arrest in human MCF7 cells assessed as accumulation at G1 phase at 10 uM after 48 hrs by propidium iodide staining based flow cytometry (reference value: 45.21%)
# MCF7 [2] = assay: Cell cycle arrest in human MCF7 cells assessed as accumulation at G2 phase at 5 uM after 48 hrs by propidium iodide staining based flow cytometry (reference value: 13.24%)
# MCF7 [3] = assay: Induction of apoptosis in human MCF7 cells assessed as late apoptotic cells at 1 uM after 48 hrs by Annexin-V FITC/propidium iodide staining based flow cytometry (reference value: 6.22%)
# MCF7 [4] = assay: Cell cycle arrest in human MCF7 cells assessed as accumulation at S phase at 5 uM after 48 hrs by propidium iodide staining based flow cytometry (reference value: 41.55%)
# MCF7 [5] = assay: Induction of apoptosis in human MCF7 cells assessed as necrotic cells at 2.5 uM after 48 hrs by Annexin-V FITC/propidium iodide staining based flow cytometry (reference value: 4.69%)
# MCF7 [6] = assay: Induction of apoptosis in human MCF7 cells assessed as necrotic cells at 1 uM after 48 hrs by Annexin-V FITC/propidium iodide staining based flow cytometry (reference value: 4.69%)
# MCF7 [7] = assay: Cell cycle arrest in human MCF7 cells assessed as accumulation at S phase at 1 uM after 48 hrs by propidium iodide staining based flow cytometry (reference value: 41.55%)
# MCF7 [8] = assay: Cell cycle arrest in human MCF7 cells assessed as accumulation at G2 phase at 1 uM after 48 hrs by propidium iodide staining based flow cytometry (reference value: 13.24%)
# MCF7 [9] = assay: Induction of apoptosis in human MCF7 cells assessed as necrotic cells at 5 uM after 48 hrs by Annexin-V FITC/propidium iodide staining based flow cytometry (reference value: 4.69%)
# MCF7 [10] = assay: Induction of apoptosis in human MCF7 cells assessed as cell shrinkage up to 20 uM after 48 hrs by Hoechst 33258 staining based fluorescence microscopic method
structure (smiles),measurement,setting,value
C[C@H]1[C@H](N2CCN(C(=O)Nc3ccc(OC(F)(F)F)cc3)CC2)O[C@@H]2O[C@@]3(C)CC[C@H]4[C@H](C)CC[C@@H]1[C@@]24OO3,Activity,MCF7 [1],83.5%
same,Activity,MCF7 [2],7.83%
same,Activity,MCF7 [3],7.01%
same,Activity,MCF7 [4],15.49%
same,Activity,MCF7 [5],20.85%
same,Activity,MCF7 [6],8.1%
same,Activity,MCF7 [7],33.33%
same,Activity,MCF7 [8],10.09%
same,Activity,MCF7 [9],21.51%
same,Activity,MCF7 [10],Active

# From ChEMBL document CHEMBL4118205, “Design, synthesis and biological evaluation of artemisinin derivatives containing fluorine atoms as anticancer agents” (Bioorg Med Chem Lett, 2018)
